Results: US20020120098A1, “Enhanced stimulation of erythropoiesis” (priority 1996, published 2002)

Legend:
anemic rats = assay: Stimulation of erythropoiesis in iron-deficient anemic rats; format: in vivo, Sprague Dawley rats
Description: HEMOLINK™ was evaluated for the stimulation of erythropoiesis in anemic rats. Male Sprague Dawley rats were made anemic on an iron deficient diet over a 4 week period. Six of the anemic rats received two infusions via tail vein injection one week apart (dose I and dose II) of 10% of total blood volume of 9.8 g/dL HEMOLINK™. Nine anemic rats received an equivalent amount of parenteral iron (INFJFER™, Sabex) per kg body weight for comparison. Both solutions contained 342.9 mg/L iron. The iron-deficient anemia of the HEMOLINK™ group was characterized by a pretreatment serum iron level of […] (n=1), a reticulocyte count of 0.39±0.08×10^12/L, a red blood cell count of 1.85±0.35×10^12/L, a 6.5±1.26% hematocrit and a total blood hemoglobin of 30.5±4.38 g/L.
Statistical comparisons in FIG. 14 are based on one way analyses of variance, followed by Bonefoni comparison post-hoc tests. The effect of HEMOLINK™ infusion on reticulocyte count, red blood cell count, total hemoglobin and hematocrit in anemic male rats was compared to iron infusion (INFUFER™; an iron-containing pharmaceutical composition) and to pretreatment levels. Significant differences are indicated by *p<0.05 compared with INFUFER™ and **p<0.01 compared with pretreatment anemic rats.

[1] = Half-life and blood level of Epo versus HEMOLINK after single i.v. administration; format: in vivo; details: for HEMOLINK level: single i.v. 4 ml/kg
Text: Another strategy for the co-administration of Epo and hemoglobin is to reduce the number of Epo administrations required during therapy. Several Epo therapies follow the regimen of three weekly injections, either intravenously or subcutaneously. Multiple low dose or single high dose injections of Epo are required due to its relatively short half-life in vivo. […] HEMOLINK™ has a longer half-life. […] Longer half-life of the cross-linked hemoglobin can therefore compensate for Epo which may decline at a much faster rate. Thus, hemoglobin co-administered with Epo could prolong the effectiveness of Epo and therefore this combination therapy can be used to reduce the required frequency of Epo administrations.

cord blood LDMNC = assay: Erythroid differentiation of cord blood LDMNC in liquid culture; format: cell-based, human; details: 20 days
Description: The ability of purified adult hemoglobin to stimulate erythroid progenitor differentiation has also been studied using a liquid culture system containing Epo. In this liquid culture system hemin is known to accelerate erythroid differentiation of progenitors obtained from normal adult peripheral blood, and to selectively increase fetal hemoglobin production in these cells. Primary low density mononuclear cells (LDMNC) isolated from cord blood were tested in this culture system. […] The addition of HAo (7.8-15.6 μM) to the cultures results in a further increase in glycophorin A/CD71 co-expression (80% vs. 53% in the Epo only control) and benzidine staining (82% vs. 43% in the Epo only control) after 20 days in culture.
The effect of HAo on erythroid differentiation was tested on cord blood LDMNC. […] 1.0 mg/ml HAo (15.6 μM) was added to Epo-stimulated cultures and the cultured cells were analyzed by flow cytometry (Epics Elite, Coulter) after 20 days for the co-expression of the red cell-specific marker, glycophorin A, and the transferrin receptor, CD71. […] Cultured cells were stained with anti-CD71 (abscissa) and anti-glycophorin A (ordinate) antibodies and the number of single- or double-stained cells (z-axis) analyzed. […] The percentage of glycophorin A^+/CD71^+ cells was determined from analysis of at least 6,500 cells per sample.

[2] = anemic male rats, two i.v. infusions one week apart

HEMOLINK™: chemically crosslinked hemoglobin prepared by treating human hemoglobin with a polyaldehyde (O-raffinose)
erythropoietic response of anemic female rats (anemic rats; anemic female rats): not significantly different from INFUFER™
serum iron level at study termination (anemic rats; anemic female rats, two doses): 27.70 ± 9.88 mg/dL
increase in hematocrit (anemic rats; [2]): significant increase
increase in number of red blood cells (anemic rats; [2]): significant increase
increase in number of reticulocytes (anemic rats; [2]): significant increase
increase in total hemoglobin concentration (anemic rats; [2]): significant increase
serum iron level at study termination (anemic rats; male rats, two infusions): 10.0 ± 1.95 mg/dL
HEMOLINK level ([1]; 0 hours post administration): 4.7 mg/mL
half-life of the 64 kD fraction ([1]; 0.4 g HEMOLINK/kg body weight): ~7 h
half-life of the >64 kD fraction ([1]; 0.4 g HEMOLINK/kg body weight): ~21 h
HEMOLINK level ([1]; 21 hours post administration): 1.75 mg/mL
HEMOLINK level ([1]; 42 hours post administration): 0.81 mg/mL
HEMOLINK level ([1]; 63 hours post administration): 0.39 mg/mL
HEMOLINK level ([1]; 84 hours post administration): 0.19 mg/mL

HAo: adult human hemoglobin obtained from red blood cells and purified by displacement chromatography; uncross linked product
percentage of cells co-expressing glycophorin A and CD71 (cord blood LDMNC; HAo 1.0 mg/ml (15.6 μM; b99: 7.8-15.6 μM), Epo-stimulated, untreated 53%): 80%
benzidine staining (cord blood LDMNC; HAo 7.8-15.6 μM, 2 U/ml Epo, Epo only control 43%): 82%
